The text below walks through data of US20260027244A1, “SILICON-BASED FLUORIDE ACCEPTOR GROUPS FOR RADIOPHARMACEUTICALS” (Technische Universität München, priority 2022, published 2026).

Each structure is given as a SMILES string. Like-named read-outs stand apart in the source and are kept apart here.

In series [1] the target is T1, human serum albumin (HSA) (Homo sapiens, UniProt P02768). Conditions: HSA binding values obtained from literature; cited from earlier work.
The target of series [2] is T1, human serum albumin (HSA). The experiment in a line: HSA binding of reference substances from literature (HPAC calibration). Conditions: logarithmic value of HSA binding values. As to the method: HSA binding of the PSMA-addressing ligands by HPAC was determined according to a previously published procedure via HPLC. […] Mobile phase A was a freshly prepared 50 mM aqueous solution of NH4OAc (pH 6.9) and mobile phase B was isopropanol (HPLC grade, VWR). The applied gradient for all experiments was 100% A (0 to 3 min), followed by 80% A (3 to 40 min). […] (12,13). All substances were dissolved in a 1:1 mixture (v/v) of isopropanol and a 50 mM aqueous solution of NH4OAc (pH 6.9) with a final concentration of 0.5 mg/mL. Non-linear regression was established with the OriginPro 2016G software (Northampton, United States).

A further series concerns the target T2, PSMA (Homo sapiens, UniProt Q04609).
T2 construct: host or cells: LNCaP cells
The experiment in a line: PSMA affinity (IC50) on LNCaP cells, competition with [125I]I-BA-KuE. In kind it is binding. As to the method: A mixture of trypsin and EDTA (0.05%, 0.02%) in PBS (Biochrom GmbH, Berlin, Germany) was used to harvest cells. Cells were counted with a Neubauer hemocytometer (Paul Marienfeld, Lauda-Königshofen, Germany).
In the case of metal-complexed ligands, the crude reaction mixture was diluted analogously, without further purification. Cells were harvested 24±2 hours prior to the experiment and seeded in 24-well plates (1.5×10^5 cells in 1 mL/well). After removal of the culture medium, the cells were carefully washed with 500 μL of HBSS (1% BSA) and left 15 min on ice for equilibration in 200 μL HBSS (1% BSA). […] For each concentration, the experiment was performed in triplicate. After incubation on ice for 60 min, the experiment was terminated by removal of the medium and consecutive rinsing with 200 μL of HBSS (1% BSA). The media of both steps were combined in one fraction and represent the amount of free radioligand. Afterwards, the cells were lysed with 250 μL of NaOH (1 M in H2O) for at least 15 min. After a washing step with NaOH (250 μL, 1 M in H2O), both fractions, representing the amount of bound ligand, were united. Quantification of all collected fractions was accomplished in a γ-counter. IC50 values were calculated using GraphPad PRISM software (GraphPad Software Inc., La Jolla, United States). The whole PSMA-affinity determination was carried out at least three times per ligand.

The nature of series [3]: n-octanol-water partition coefficient (log D7.4). In kind it is physicochemical. As to the method: In the development process of alternative SiFA-analogs, the influence of the substitution pattern at the aromatic moiety on lipophilicity is of particular importance. […] Assuming to observe a better differentiation in properties of the various prosthetic groups, investigations were conducted on small model peptides. Corresponding log D7.4-values (n≥8) are depicted in FIG. 3.
Approximately 1 MBq of the [^177Lu]Lu-labeled tracer or 0.5 MBq of the [^18F]F-labeled tracer was dissolved in 1 mL of n-octanol/PBS (v/v=1:1) in a reaction vial (1.5 mL). After vigorous mixing of the suspension for 3 min at rt, the vial was centrifuged at 15000 g for 5 min (Biofuge 15, Heraus Sepatech, Osterode, Germany) and 100 μL aliquots of both layers were measured in a γ-counter. The experiment was repeated (n≥6).

In series [4] the target is T1, human serum albumin (HSA). Briefly: Human serum albumin (HSA) binding by high performance affinity chromatography (HPAC). In kind it is in vitro ADME. Conditions: radiohybrid SSTR ligands, Table 4. As to the method: Investigations about the binding strength of the SiFA-MPs to human serum albumin (HSA) were conducted using high performance affinity chromatography (HPAC). The corresponding gold-standards ((4-SiFA)Bz-MPs) display—as expected from published as well as internal data—a quite strong HSA binding. This is associated with a comparably slow and unfavored blood clearance in vivo.

Series [5] can be described thus: Biodistribution in LNCaP tumor-bearing male CB17-SCID mice. In kind it is in vivo. Conditions: 1 h p.i. From the text: Data expressed as percentage of the injected dose per gram (% ID/g), mean±standard deviation. Data of [18F]F, ^natGa-rhPSMA-7.3 were previously published by our group. (2)
Mice were used for experiments when tumors had grown to a diameter of 2-6 mm (4-20 weeks after inoculation).
Results are all decay-corrected and given in % injected dose per gram of tissue (% ID/g).

For series [6] the following is noted: 1 h p.i.; previously published data; cited from earlier work.

T1 sequence (P02768 25-609): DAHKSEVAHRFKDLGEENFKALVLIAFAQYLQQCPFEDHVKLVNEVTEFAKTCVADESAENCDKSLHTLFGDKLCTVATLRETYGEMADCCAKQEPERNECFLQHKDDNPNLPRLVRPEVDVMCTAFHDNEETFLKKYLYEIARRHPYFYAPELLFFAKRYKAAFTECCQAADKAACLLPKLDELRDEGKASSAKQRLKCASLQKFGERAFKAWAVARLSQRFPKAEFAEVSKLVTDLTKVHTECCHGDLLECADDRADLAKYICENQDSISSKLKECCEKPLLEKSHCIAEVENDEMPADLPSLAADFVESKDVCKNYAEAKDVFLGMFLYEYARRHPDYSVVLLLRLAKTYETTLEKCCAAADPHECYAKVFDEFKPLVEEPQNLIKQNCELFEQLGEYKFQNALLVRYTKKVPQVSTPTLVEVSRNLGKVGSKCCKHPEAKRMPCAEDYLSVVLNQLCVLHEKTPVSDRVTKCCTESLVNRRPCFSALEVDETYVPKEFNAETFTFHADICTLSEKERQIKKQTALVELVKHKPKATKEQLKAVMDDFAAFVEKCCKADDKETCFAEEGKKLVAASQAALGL
T2 sequence (Q04609 whole entry): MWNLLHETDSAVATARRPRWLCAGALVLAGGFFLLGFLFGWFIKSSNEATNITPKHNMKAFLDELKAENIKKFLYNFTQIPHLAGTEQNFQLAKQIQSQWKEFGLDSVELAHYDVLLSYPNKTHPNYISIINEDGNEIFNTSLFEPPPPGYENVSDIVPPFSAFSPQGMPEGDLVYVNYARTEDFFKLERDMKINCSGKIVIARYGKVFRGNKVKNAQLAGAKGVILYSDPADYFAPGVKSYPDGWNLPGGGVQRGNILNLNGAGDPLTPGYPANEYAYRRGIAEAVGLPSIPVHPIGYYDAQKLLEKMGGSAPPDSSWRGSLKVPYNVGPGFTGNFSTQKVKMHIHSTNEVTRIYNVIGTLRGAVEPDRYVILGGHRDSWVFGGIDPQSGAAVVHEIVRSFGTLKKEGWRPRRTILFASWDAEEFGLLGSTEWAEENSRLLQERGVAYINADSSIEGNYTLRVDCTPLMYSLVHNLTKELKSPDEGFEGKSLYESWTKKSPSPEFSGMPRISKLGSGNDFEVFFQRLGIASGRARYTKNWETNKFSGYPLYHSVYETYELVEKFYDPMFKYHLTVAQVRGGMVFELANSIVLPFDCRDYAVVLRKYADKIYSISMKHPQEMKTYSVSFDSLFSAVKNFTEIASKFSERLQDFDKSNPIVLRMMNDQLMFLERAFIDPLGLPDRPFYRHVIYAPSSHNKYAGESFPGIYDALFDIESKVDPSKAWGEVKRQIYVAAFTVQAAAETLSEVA

As for `Nc1ccccc1` [Aniline], the “lit. HSA [%]” value in series [1] is given as 14.06%. The “Log K HSA” value in series [2] is −0.79.
As to `O=C(O)c1ccccc1` [Benzoic Acid], in series [1], the “lit. HSA [%]” value was 34.27%.
In the case of `CC(C)(C)[Si](F)(c1ccc(C(=O)NCCCC[C@H](NC(=O)N[C@@H](CCC(=O)O)C(=O)O)C(=O)O)cc1)C(C)(C)C` [Entry 1], at PSMA, the IC50 amounted to 0.327 ± 0.073 µM. In series [3] (pH 7.4), the “logD7.4 (n = 6)” value is on record as −1.95 ± 0.09.
As to `C[C@@H](O)[C@H](NC(=O)[C@@H]1CSSC[C@H](NC(=O)[C@@H](Cc2ccccc2)NC(=O)CN2CCN(CC(=O)O)CCN(CC(=O)NCCNC(=O)c3cc(C(=O)O)cc([Si](F)(C(C)(C)C)C(C)(C)C)c3)CCN(CC(=O)O)CC2)C(=O)N[C@@H](Cc2ccc(O)cc2)C(=O)N[C@H](Cc2c[nH]c3ccccc23)C(=O)N[C@@H](CCCCN)C(=O)N[C@@H]([C@@H](C)O)C(=O)N1)C(=O)O` [Entry 4, ^natGa-(5-SiFA)Ip-EDA-DOTATATE, metal not drawn], the “HSA binding (HPAC) [%]” value in series [4] came out at 97.4%. Also, in series [3] (18F-labeled compound, SSTR ligands), the “logD7.4 (n = 6)” value is recorded as −0.67 ± 0.03.
`COc1ccc(Cl)cc1C(=O)NCCc1ccc(S(=O)(=O)NC(=O)NC2CCCCC2)cc1` [Glibenclamide]: in series [1], the “lit. HSA [%]” value is on record as 99.00%. Also, the “Log K HSA” value in series [2] was 1.69.
For the molecule `CCCC[C@@H](C(=O)N[C@@H](CC(=O)O)C(=O)N[C@@H](Cc1cccc2ccccc12)C(N)=O)N(C)C(=O)[C@H](Cc1c[nH]c2ccccc12)NC(=O)CNC(=O)[C@H](Cc1ccc(O)cc1)NC(=O)[C@H](C)NC(=O)[C@@H](CCC(=O)O)NC(=O)CN1CCN(CC(=O)O)CCN(CC(=O)O)CCN(CC(=O)O)CC1` [Lu-DOTA-MGS5], the pH-dependent lipophilicity (logD) in series [3] (pH 7.4) was -2.25.
As for `CC(C)(C)[Si](F)(c1cccc(C(=O)NCCCC[C@H](NC(=O)N[C@@H](CCC(=O)O)C(=O)O)C(=O)O)c1)C(C)(C)C` [PSMA-2], at PSMA (shift of silyl group from para (PSMA-1) to meta position), the increase in affinity result is given as “more than 20 fold”.
For the molecule `CC(C)(C)[Si](F)(c1cc(C(=O)O)cc(C(=O)NCCCC[C@H](NC(=O)N[C@@H](CCC(=O)O)C(=O)O)C(=O)O)c1)C(C)(C)C` [PSMA-3], the “further improvement of affinity, factor” value at PSMA (attaching a carboxylic acid, compared to PSMA-2) is listed as “two”. In series [5], this molecule came in with an accumulation in intestine of 17.7±1.6 % ID/g, an accumulation in liver of 7.2±4.8 % ID/g, a blood value of 0.55 % ID/g and a bone uptake of 1.16±0.22 % ID/g. In series [5], this molecule had a kidney value of 67.1±13.9 % ID/g.
On to `Oc1ccccc1` [Phenol], for which the “lit. HSA [%]” value in series [1] is recorded as 20.69%. The “Log K HSA” value in series [2] was −0.59.
Regarding `CCCN(CCC)S(=O)(=O)c1ccc(C(=O)O)cc1` [Probenecid], the “lit. HSA [%]” value in series [1] is 95.00%.
As for `CC(C)(C)[Si](F)(c1ccc(C(=O)NC[C@@H](NC(=O)CC[C@@H](C(=O)O)N2CCN(CC(=O)O)CCN(CC(=O)O)CCN(CC(=O)O)CC2)C(=O)N[C@H](CCCCC(=O)NCCC(=O)NCCC[C@@H](NC(=O)CC[C@H](NC(=O)N[C@@H](CCC(=O)O)C(=O)O)C(=O)O)C(=O)O)C(=O)O)cc1)C(C)(C)C` [[^18F]F, ^natGa-rhPSMA-7.3, metal not drawn], in series [6], the blood value is 0.96 % ID/g and the bone uptake is on record as 0.38±0.32 % ID/g.
